Common to all, as to assay: NCI anticancer screen, dose series, 48 h
Test [1] has as its system HCT-15 colon.
The test system of test [2] is SF-295 CNS.
In test [3] the test system is HT29 colon.
Test [4] has as its system KM12 colon.
The test system of test [5] is IGROV1 ovarian.
The test system of test [6] is MDA-N.
The subject of test [7] is SN12C renal.
Test [8] relates to MCF7 breast.
Test [9] has as its system SF-539 CNS.
The subject of test [10] is SNB-19 CNS.
The test system of test [11] is UACC-257 melanoma.
Test [12] concerns UO-31 renal.
Test [13] deals with U251 CNS.
The subject of test [14] is HCC-2998 colon.
Test [15] relates to HS 578T breast.
Test [16] has as its system SR leukemia.

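Compound exposure: 48 hours, 5 concentrations, 96-well plates. TGI is the concentration that stops growth completely.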 A value given as a limit tells only on which side of the number the result lay.

As to `N=C(N)SCc1cccc2c(=O)cc(-c3ccccc3)oc12`, the TGI in test [1] was more than 65.7 µM; in test [2] it was 26.5 µM; in test [3], 24.8 µM; in [4], 27.3 µM; in test [5], 30.2 µM; in [6], 21.3 µM. Moreover, the TGI in test [7] was 25.9 µM; in test [8] it was 16.3 µM; in test [9], 20.9 µM; in [10], more than 61.1 µM; in test [11], 26 µM; in test [12], 11.3 µM. Further, the TGI in test [13] was 27.3 µM; in test [14], 27.1 µM; in test [15], 45.4 µM; in [16], more than 100 µM.

In the case of `Cc1ccc(/C=C/C(=N/NC(=O)N/N=C(/C=C/c2ccc(C)cc2)C(C)(C)CN2CCCCC2)C(C)(C)CN2CCCCC2)cc1`, the TGI in test [1] was 3.25 µM; in test [2], 3.13 µM; in test [3], 2.16 µM; in test [4], 3.01 µM; in test [5], 3.71 µM; in test [6], 2.88 µM. Moreover, the TGI in [7] is 3.27 µM; in [8], 2.83 µM; in test [9], 3.24 µM; in test [10], 4.4 µM; in [11], 3.1 µM; in test [12], 2.28 µM. The TGI in test [13] came out at 2.82 µM; in test [14], 3.21 µM; in [15] it was 3.29 µM; in test [16], 0.359 µM.

As to `COc1ccc(C(=O)/C=C/c2ccc(OCC(=O)N3CCN(c4ccccc4)CC3)cc2)cc1`, the TGI in [1] was more than 100 µM; in test [2], 84.7 µM; in test [3], more than 100 µM; in test [4], more than 100 µM; in test [5], more than 65.8 µM; in test [6] it was more than 100 µM. Further, the TGI in test [7] was more than 100 µM; in test [8] it was more than 100 µM; in [9], 51.7 µM; in test [10] it was 65.1 µM; in test [11], more than 100 µM; in test [12], more than 94.7 µM. Further, the TGI in [13] was more than 83.5 µM; in test [14] it was more than 100 µM; in [15] it was more than 76.5 µM; in test [16], more than 60.4 µM.

Turning to `COc1ccc(Cc2nccc3cc(OC)c(OC)cc23)cc1OC`, the TGI in [1], in test [2], in [3], in test [4], in test [5] and in [6] was more than 100 µM throughout. Moreover, the TGI in [7], in test [8], in test [9], in [10], in [11] and in test [12] was more than 100 µM throughout. Further, the TGI in test [13], in [14], in [15] and in test [16] was more than 100 µM each time.

`S=c1sc2nc(Cl)nc(Cl)c2s1`: the TGI in test [1] came out at 30.7 µM; in test [2] it was 31.7 µM; in [3] it was 23.5 µM; in [4], 20.8 µM; in test [5] it was 27.7 µM; in test [6], 24.8 µM. Besides, the TGI in test [7] stood at 32.4 µM; in [8], 25.2 µM; in test [9] it was 41.6 µM; in [10], 34.8 µM; in test [11], 31.9 µM; in test [12] it was 25.1 µM. Further, the TGI in [13] was 21.3 µM; in test [14] it was 31.6 µM; in test [15], 60.4 µM; in test [16], 21.2 µM.

`O=C(CCN1CCOCC1)Nc1ccc2sc3ccccc3c(=O)c2n1`: the TGI in [1], in [2], in test [3], in test [4], in test [5] and in test [6] was more than 100 µM throughout. The TGI in [7], in test [8], in [9], in test [10], in [11] and in test [12] was more than 100 µM throughout. For the same compound, the TGI in [13], in [14], in [15] and in [16] was more than 100 µM throughout.

For the compound `COC(=O)[C@@H]1C[C@@H]2c3ccccc3N(S(=O)(=O)c3ccccc3)[C@@H]2N1C(=O)OC`, the TGI in [1], in test [2], in [3], in test [4], in test [5] and in [6] was more than 100 µM in each case. Moreover, the TGI in test [7], in test [8], in test [9], in test [10], in [11] and in test [12] was more than 100 µM throughout. In addition, the TGI in [13], in test [14], in test [15] and in [16] was more than 100 µM throughout.

(Values after PubChem BioAssay (NCI).)
